Measured values as given in patent publication US11311043B2, “Preparation of glucan-based shell-core structure carrier material and its application thereof” (Jiangnan University, priority 2018, dated 2022).

Tests used:
Intestinal cell = Intestinal cell experiment: hydrogen peroxide irritation, cell activity by MTT method; type: cell-based; conditions: 2 mM hydrogen peroxide for 2 h, then cultured 4 h
Procedure: Cell experiment: Intestinal cell experiment is performed on a carrying complex. 100 μL of a carrying material-nutritional factor complex dissolved solution is added to a cell culture solution, 2 mM of a hydrogen peroxide solution is added for irritating cells for 2 h, and the cells are continued to be cultured for 4 h. Cell activity is detected by an MTT method.

[1] = Biological stability by oxidation rate POV (potassium thiocyanate peroxide value method); type: physicochemical; conditions: conjugated linoleic acid carried; stability from maximum peroxide value (POV)
Procedure: To better realize the present invention, biological stability is characterized by determining the oxidation rate POV (peroxide value) by applying a potassium thiocyanate POV determining method. POV is calculated through the formula below: […]
c and c0 are the mass of iron in a test sample and a blank sample; m is the mass of CLA; 2 is a conversion factor; and 55.84 is the relative atomic mass of iron. The degree of oxidation of pure nutritional factors serves as control, and the maximum values of the amount of peroxide (POV) in the control and the material are calculated and compared. POV is the amount of peroxide in a first stage product obtained after fat oxidation. Because it cannot be excluded that a small amount of peroxide continues to decompose into small molecular substances under an oxidizing environment, the stability is characterized by: Stability[…](100−100 g CLA maximum value of the amount of peroxide generated by oxidation)/100*100%.

Work on COC1=C(OC)C(=O)C(C/C=C(\C)CC/C=C(\C)CC/C=C(\C)CC/C=C(\C)CC/C=C(\C)CC/C=C(\C)CC/C=C(\C)CC/C=C(\C)CC/C=C(\C)CCC=C(C)C)=C(C)C1=O [Coenzyme Q10, coenzyme Q10] yielded a Cell activity % (Intestinal cell; 1 μg/ml) of 92 ± 3.4% and a Cell activity % (Intestinal cell; 10 μg/ml) of 97 ± 2.6%.
In the case of conjugated linoleic acid [Control 1], the Biological stability [1] is reported as 58.2%.
